Data on 17 compounds can be found in ChEMBL document CHEMBL3286313 (J Med Chem, 2014).

Assay [1] deals with D(1A) dopamine receptor (Homo sapiens, UniProt P21728). Put plainly: biochemical. It counts as cell-based, HEK293.
The target of assay [2] is T1, D(3) dopamine receptor (Homo sapiens, UniProt P35462). Format: functional, cell-based, HEK293.
Assay [3] concerns the target 5-hydroxytryptamine receptor 2A (Homo sapiens, UniProt P28223). Briefly: biochemical. Format: cell-based, HEK293.
Assay [4] addresses T2, D(2) dopamine receptor (Homo sapiens, UniProt P14416). Put plainly: biochemical. Format: cell-based, CHO.
Assay [5] addresses T2, D(2) dopamine receptor. Briefly: biochemical. Format: cell-based, CHO. This is another data set of the same source.
Assay [6] addresses T2, D(2) dopamine receptor.
The target in assay [7] is T3, D(4) dopamine receptor (Homo sapiens, UniProt P21917).
T3 sequence (P21917 whole entry): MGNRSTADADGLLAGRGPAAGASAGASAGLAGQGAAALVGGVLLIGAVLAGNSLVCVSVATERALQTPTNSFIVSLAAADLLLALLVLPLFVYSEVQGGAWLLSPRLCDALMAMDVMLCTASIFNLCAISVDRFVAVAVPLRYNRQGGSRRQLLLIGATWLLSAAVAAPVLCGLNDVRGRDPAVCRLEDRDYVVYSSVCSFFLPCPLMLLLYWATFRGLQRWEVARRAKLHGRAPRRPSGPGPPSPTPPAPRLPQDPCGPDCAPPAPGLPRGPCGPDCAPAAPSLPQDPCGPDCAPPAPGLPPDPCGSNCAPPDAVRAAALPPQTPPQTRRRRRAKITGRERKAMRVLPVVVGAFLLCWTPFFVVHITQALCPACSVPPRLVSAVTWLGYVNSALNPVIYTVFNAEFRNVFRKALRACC
Briefly: biochemical. It counts as cell-based, CHO.

For assay [8], the target named is T1, D(3) dopamine receptor. Briefly: biochemical. It counts as cell-based, CHO.
The target of assay [9] is T2, D(2) dopamine receptor. The source holds these as a separate data set.
Assay [10] relates to Mus musculus. Put plainly: CNS activity in C57Bl/6J mouse assessed as auditory startle response at 3 mg/kg, ip measured after 15 mins. Format: functional, organism-based. The arrangement: dose 3 mg/kg.

Several values for one entry are separate records, joined by “and”; a condition that tells them apart may be missing. Identical values can stand only once. Activity calls are given as the source filed them. No cut-off for these calls is given here.

Chain of 5-hydroxytryptamine receptor 2A (P28223 whole entry): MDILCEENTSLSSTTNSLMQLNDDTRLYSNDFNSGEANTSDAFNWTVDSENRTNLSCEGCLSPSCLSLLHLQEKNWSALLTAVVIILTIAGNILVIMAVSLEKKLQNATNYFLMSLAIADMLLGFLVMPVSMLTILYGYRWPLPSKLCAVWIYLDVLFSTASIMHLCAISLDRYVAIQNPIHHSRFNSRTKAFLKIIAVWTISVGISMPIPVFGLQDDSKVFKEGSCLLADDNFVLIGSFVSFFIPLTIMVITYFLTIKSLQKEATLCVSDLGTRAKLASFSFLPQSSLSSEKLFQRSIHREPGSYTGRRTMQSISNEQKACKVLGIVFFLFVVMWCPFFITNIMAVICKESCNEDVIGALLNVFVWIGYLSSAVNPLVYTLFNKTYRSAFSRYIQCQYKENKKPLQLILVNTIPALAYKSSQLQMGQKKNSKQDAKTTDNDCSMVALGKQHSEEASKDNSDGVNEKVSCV
Chain of D(1A) dopamine receptor (P21728 whole entry): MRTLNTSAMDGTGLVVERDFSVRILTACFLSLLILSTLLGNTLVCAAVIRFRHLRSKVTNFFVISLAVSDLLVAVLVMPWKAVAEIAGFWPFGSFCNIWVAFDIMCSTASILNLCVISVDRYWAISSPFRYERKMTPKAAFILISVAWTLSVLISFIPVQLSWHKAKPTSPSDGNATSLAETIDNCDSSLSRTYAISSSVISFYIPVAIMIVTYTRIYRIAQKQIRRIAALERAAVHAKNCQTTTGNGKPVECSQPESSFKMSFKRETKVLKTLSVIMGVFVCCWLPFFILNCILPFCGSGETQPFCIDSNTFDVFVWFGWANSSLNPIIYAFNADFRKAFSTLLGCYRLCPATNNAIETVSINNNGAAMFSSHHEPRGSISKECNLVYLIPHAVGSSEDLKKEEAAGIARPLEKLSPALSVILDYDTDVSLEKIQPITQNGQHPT
T2 sequence (P14416 whole entry): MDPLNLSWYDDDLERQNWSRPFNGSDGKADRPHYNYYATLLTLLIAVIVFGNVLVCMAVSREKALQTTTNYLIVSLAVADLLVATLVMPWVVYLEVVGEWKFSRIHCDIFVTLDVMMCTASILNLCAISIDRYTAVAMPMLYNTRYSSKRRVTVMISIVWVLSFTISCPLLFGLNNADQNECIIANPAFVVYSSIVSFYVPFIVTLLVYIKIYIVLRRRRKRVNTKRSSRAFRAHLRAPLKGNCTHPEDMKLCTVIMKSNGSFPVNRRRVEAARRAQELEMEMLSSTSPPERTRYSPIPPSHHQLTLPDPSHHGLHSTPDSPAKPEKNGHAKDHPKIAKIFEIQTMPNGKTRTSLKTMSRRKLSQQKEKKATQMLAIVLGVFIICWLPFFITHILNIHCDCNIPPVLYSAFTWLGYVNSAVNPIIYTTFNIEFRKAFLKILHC
T1 sequence (P35462 whole entry): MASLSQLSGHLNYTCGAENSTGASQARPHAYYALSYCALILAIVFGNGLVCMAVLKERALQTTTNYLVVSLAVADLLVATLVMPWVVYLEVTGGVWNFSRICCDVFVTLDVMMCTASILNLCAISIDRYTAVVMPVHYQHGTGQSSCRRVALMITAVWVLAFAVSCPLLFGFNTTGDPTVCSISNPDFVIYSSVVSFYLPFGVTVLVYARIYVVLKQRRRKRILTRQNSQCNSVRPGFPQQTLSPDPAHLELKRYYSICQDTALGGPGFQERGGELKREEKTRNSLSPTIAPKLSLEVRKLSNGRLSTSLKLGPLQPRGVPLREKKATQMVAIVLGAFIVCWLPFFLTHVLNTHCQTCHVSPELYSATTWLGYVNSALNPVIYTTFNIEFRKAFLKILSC

As a reminder, the Ki is the dissociation constant of the complex between target and ligand, obtained from inhibition or displacement. The low end stands for higher affinity, the high end for lower affinity. Usually EC50 stands for the concentration giving half of the maximal effect. Take `N#Cc1cc2cc(OCCCCN3CCN(c4cccc(Cl)c4Cl)CC3)ccn2n1`: the Ki was determined as 3500 nM in assay [1]; 81 nM in assay [3]; 8.9 nM in [4]; 6.7 nM in assay [5]; 9.3 nM in assay [7]; 1.9 nM in assay [8]. Moreover, the EC50 in assay [2] is 41 nM; in assay [6], 98 nM.
One may read the IC50 as the midpoint of a concentration-inhibition curve. The low end stands for greater potency in that assay, the high end for weaker potency in that assay. Regarding `O=Cc1cnn2ccc(OCCCCN3CCN(c4cccc(Cl)c4Cl)CC3)cc12`, the Ki worked out at 970 nM in assay [1]; 240 nM in assay [3]; 4.6 nM in assay [4]; 3.2 nM in assay [5]; 57 nM in [7]; 6.9 nM in [8]. The figures for the concentration for a half-maximal effect (EC50) in [2] and in assay [6] were 1.9 nM and 650 nM, respectively. Also, in assay [9], the IC50 came to 360 nM. Further, the result in assay [10] was Active.
Regarding `O/N=C/c1cnn2ccc(OCCCCN3CCN(c4cccc(Cl)c4Cl)CC3)cc12` (stereo in doubt; 8a), the Ki in assay [1] was 4300 nM; in assay [3], 7.7 nM; in assay [4] it was 1.8 nM; in assay [5], 1.7 nM; in assay [7], 5.3 nM; in assay [8] it was 2.3 nM. Moreover, the EC50 was 42 nM in assay [2] and 270 nM in [6].
As to `Clc1cccc(N2CCN(CCCCOc3ccn4nccc4c3)CC2)c1Cl`, the EC50 turned out to be 66 nM in [2] and 180 nM in [6]. Moreover, the inhibition constant (Ki) in [4] was determined as 34 nM; in assay [5], 39 nM; in assay [7], 130 nM; in [8] it was 7 nM.
Regarding `Clc1cccc(N2CCN(CCCCOc3cccc4ccnn34)CC2)c1Cl`, the Ki in assay [4] turned out to be 64 nM; in assay [5], 16 nM; in [7], 16 nM; in assay [8], 7.2 nM.
In the case of `O=Cc1cnn2cc(OCCCCN3CCN(c4cccc(Cl)c4Cl)CC3)ccc12`, the figures for the 50% effective concentration (EC50) in assay [2] and in assay [6] were 110 nM and 340 nM, respectively. Also, the Ki in [4] worked out at 6.2 nM; in assay [5] it was 8.1 nM; in assay [7], 18 nM; in [8], 2 nM.
In the case of `O=Cc1cnn2cccc(OCCCCN3CCN(c4cccc(Cl)c4Cl)CC3)c12`, the Ki in [4] worked out at 29 nM; in assay [5], 24 nM; in [7] it was 41 nM; in assay [8] it was 20 nM.
For `O=Cc1cnn2c(OCCCCN3CCN(c4cccc(Cl)c4Cl)CC3)cccc12`, in that order: 51 nM, 15 nM, 78 nM and 6.4 nM.
For `OCc1cc2cc(OCCCCN3CCN(c4cccc(Cl)c4Cl)CC3)ccn2n1`, the Ki came out at 240 nM in assay [1]; 16 nM in assay [3]; 3.1 nM in assay [4]; 2.3 nM in assay [5]; 35 nM in [7]; 1.3 nM in assay [8]. The EC50 was 5.9 nM in assay [2] and 540 nM in [6].
Turning to `Clc1cccc(N2CCN(CCCCOc3cccn4nccc34)CC2)c1Cl`, the Ki in [4] stood at 25 nM; in assay [5], 30 nM; in assay [7], 16 nM; in assay [8], 10 nM.
For `O/N=C/c1cc2cc(OCCCCN3CCN(c4cccc(Cl)c4Cl)CC3)ccn2n1`, the Ki in assay [1] was determined as 260 nM; in assay [3] it was 7.9 nM; in assay [4] it was 3.3 nM; in assay [5], 2.3 nM; in assay [7], 24 nM; in assay [8] it was 0.86 nM. A half-maximal response in assay [2] (EC50) required 15 nM.
As for `O=Cc1cc2cc(OCCCCN3CCN(c4cccc(Cl)c4Cl)CC3)ccn2n1`, the Ki in assay [1] was 180 nM; in assay [3], 56 nM; in assay [4], 14 nM; in [5], 14 nM; in assay [7], 89 nM; in assay [8], 6 nM. Further, the EC50 in assay [2] was 5 nM. Moreover, in [9], the IC50 was 28.8 nM and 22 nM.
As for `O=Cc1c(OCCCCN2CCN(c3cccc(Cl)c3Cl)CC2)nn2ccccc12`, the Ki in [4] came out at 10 nM; in assay [5], 14 nM; in assay [7] it was 29 nM; in assay [8], 5.9 nM.
As to `Clc1cccc(N2CCN(CCCCOc3ccc4ccnn4c3)CC2)c1Cl`, the EC50 came to 41 nM in assay [2] and 1300 nM in assay [6]. For the same compound, the Ki in assay [4] was 4.2 nM; in assay [5], 2.1 nM; in assay [7] it was 4.4 nM; in [8] it was 2.3 nM.
As to `N#Cc1cnn2ccc(OCCCCN3CCN(c4cccc(Cl)c4Cl)CC3)cc12`, the Ki in [1] was determined as 930 nM; in assay [3], 490 nM; in assay [4] it was 0.58 nM; in [5], 0.32 nM; in [7] it was 5.7 nM; in assay [8], 1.5 nM. In addition, the values for the half-maximal effective concentration (EC50) in assay [2] and in [6] were 12 nM and 110 nM, respectively.
As to `CCOC(=O)c1cc2cc(OCCCCN3CCN(c4cccc(Cl)c4Cl)CC3)ccn2n1`, the Ki was found to be 150 nM in assay [1]; 22 nM in assay [3]; 7.4 nM in assay [4]; 6.7 nM in assay [5]; 47 nM in assay [7]; 2.1 nM in assay [8]. Also, the EC50 in assay [2] amounted to 57 nM; in assay [6] it was 440 nM.
As to `O/N=C/c1cnn2ccc(OCCCCN3CCN(c4cccc(Cl)c4Cl)CC3)cc12` (stereo in doubt; 8b), the Ki was determined as 670 nM in assay [1]; 4 nM in assay [3]; 0.17 nM in [4]; 0.25 nM in assay [5]; 6 nM in assay [7]; 0.69 nM in assay [8]. Besides, the EC50 in assay [2] was 39 nM; in assay [6], 240 nM. For the same compound, in assay [9], half-maximal inhibition (IC50) was put at 3.8 nM.
